Results as given in patent US20240415123A1, “METHODS AND COMPOSITIONS FOR ICAFOLIN HERBICIDE TOLERANCE” (Monsanto Technology LLC, priority 2023, published 2024).

Key:
Type in all cases: in vivo
[1] = system: transgenic soybean plants expressing CYP12_var; test: Icafolin herbicide injury rating, greenhouse spray, CYP12_var soybean; settings: for Percent Injury 15 DAT / Percent injury 21 DAT: Experiment 1
Source text: The codon-optimized polynucleotide sequences were placed into plant transformation cassettes with each CYP coding sequence operably-linked to a constitutive expression element comprising the promoter, leader, and intron sequence of Arabidopsis thaliana Ubiquitin 3 (SEQ ID NO:14) and a Medicago truncatula photosystem II terminator (SEQ ID NO:15). Four plant transformation vectors were created, each comprising one of the CYP gene expression cassettes and an aadA selectable marker expression cassette, conferring resistance to the antibiotics spectinomycin and streptomycin. Soybean cultivar AG3555 seed-derived embryo explants were transformed with the vectors by Agrobacterium-mediated transformation using known methods in the art, and transformed plantlets were selected based on growth in the presence of spectinomycin. Plantlets comprising single copy events were grown in the greenhouse to produce R1 seeds. R1 plants were subsequently selected for homozygous CYP-positive plants, either by molecular analysis of young leaf tissue or by seed chipping prior to planting. These selected plants were then screened for tolerance to icafolin herbicide.
Herbicide tolerance screens were performed by selecting R1 plants at roughly the V2-V3 developmental stage and applying icafolin herbicide with a track sprayer under standard greenhouse conditions. Two independent transgenic events per transgene were screened. The herbicide was formulated with 1% v/v methylated seed oil (MSO) and 2.5% v/v ammonium sulfate (AMS) and sprayed with a XR nozzle at 15 gallons per […] (GPA) to mimic field conditions. The icafolin used in this Example and in the experiments described in Examples 2-4 was a mixture of the methyl ester forms of the 2R, 4R and 2S, 4S isomers. The icafolin formulation was sprayed at two rates: 5 g active ingredient (ai)/hectare (ha) and 25 g ai/ha. The herbicide treated soybean plants were returned to the greenhouse following spray application and allowed to grow under standard conditions. Plants were rated for herbicide injury at approximately 14 and 21 days after treatment (DAT). Untreated transgenic plants and control (wild-type) plants were used for phenotypic comparison. The herbicide injury rating accounts for plant malformation, stunting, chlorosis, necrosis, and plant death relative to the untreated control plants. An injury rating of approximately 90% or above indicates nearly complete plant death. An injury rating of less than 30% indicates partial tolerance, and an injury rating of less than 20% indicates good tolerance. Injury ratings were collected and analyzed, and photographs of representative plants were taken.

[2] = system: transgenic soybean plants expressing CYP21; test: Icafolin herbicide injury rating, greenhouse spray, CYP21 soybean; settings: for Percent Injury 14 DAT / Percent injury 21 DAT: Table 8; for Percent Injury 14 DAT / injury: 14 DAT
Source text: The codon-optimized genes were placed into plant transformation cassettes with each CYP coding sequence operably linked to a constitutive expression element comprising the promoter, leader, and intron of Arabidopsis thaliana Ubiquitin 3 (SEQ ID NO:14) and a Medicago truncatula photosystem II terminator (SEQ ID NO:15). Two plant transformation vectors were created, each comprising one of the CYP gene cassettes and an aadA selectable marker expression cassette, conferring resistance to the antibiotics spectinomycin and streptomycin. Soybean cultivar AG3555 seed-derived embryo explants were transformed with the vectors described above by Agrobacterium-mediated transformation using known methods in the art, and positive-transformed plantlets were selected based on growth in the presence of spectinomycin. Plantlets comprising single copy events were grown in the greenhouse to produce R1 seeds. R1 plants were subsequently selected for the homozygous CYP positive plants, either by molecular analysis of young leaf tissue or by seed chipping prior to planting. These selected plants were then screened for tolerance to the icafolin herbicide.
Herbicide tolerance screening was performed by selecting R1 plants at roughly the V2-V3 developmental stage and applying the icafolin herbicide in a track sprayer under standard greenhouse conditions. Two independent transgenic events per transgene were selected for screening. The herbicide was formulated with 1% v/v methylated seed oil (MSO) and 2.5% v/v ammonium sulfate (AMS) and sprayed with a XR nozzle at 15 gallons per […] (GPA) to mimic field conditions. The icafolin formulation was sprayed at two rates: 5 g active ingredient (ai)/hectare (ha) and 25 g ai/ha. The treated soybean plants were returned to the greenhouse following spray application and allowed to grow under standard conditions. The plants were rated for herbicide injury at approximately 14 and 21 days after treatment (DAT). Untreated transgenic plants and control (wild-type) plants were used for phenotypic comparison. The herbicide injury rating accounts for plant malformation, stunting, chlorosis, necrosis, and plant death relative to the untreated control plants. An injury rating of approximately 90% or above indicates nearly complete plant death. An injury rating of less than 30% indicates partial tolerance and an injury rating of less than 20% indicates good tolerance. Injury ratings were collected and analyzed, and photographs of representative plants were taken.

[3] = system: Soy transgenic plants expressing CYP14; test: Field trial icafolin injury rating, CYP14 soybean; settings: for Percent Plant Injury (21 DAT): averaged across repetitions, field locations and events
Description: (§1) Soy transgenic plants expressing CYP14 or CYP15 were assayed in small scale field trails across nine sites in the United States for tolerance to icafolin spray applications. The plants were grown in field plots and sprayed during the early vegetative stages when plants were roughly at the V3 stage. The icafolin formulation was sprayed at either a 5 g ai/ha or 25 g ai/ha application rate with 2 treatment replications per location. The plants were rated for herbicide injury at 7, 14, 21, and 28 days after treatment (DAT). A total of 12 events for CYP14 and 11 events for CYP15 were tested. An event transformed with a non-herbicide tolerance construct served as a negative control to provide a comparison for injury.

[4] = system: Soy transgenic plants expressing CYP15; test: Field trial icafolin injury rating, CYP15 soybean; settings: for Percent Plant Injury (21 DAT): averaged across repetitions, field locations and events
Description: as §1

[5] = system: soybean event transformed with a non-herbicide tolerance construct (negative control); test: Field trial icafolin injury rating, negative control soybean; settings: averaged across repetitions and field locations
Description: as §1

[6] = CYP12_var Event 909, 5 g ai/ha icafolin
[7] = CYP12_var Event 909, 25 g ai/ha icafolin
[8] = CYP12_var Event 932, 5 g ai/ha icafolin
[9] = CYP12_var Event 932, 25 g ai/ha icafolin
[10] = CYP21 Event 344, 5 g ai/ha icafolin
[11] = CYP21 Event 344, 25 g ai/ha icafolin
[12] = CYP21 Event 502, 5 g ai/ha icafolin
[13] = CYP21 Event 502, 25 g ai/ha icafolin

C=C[C@]1(C(=O)N[C@H]2CO[C@@H](C(=O)OC)C2)CC(c2cc(F)cc(F)c2)=NO1 (relative stereo) [icafolin, methyl(2R*,4R*)-4-[[(5S)-3-(3,5-difluorophenyl)-5-vinyl-4H-isoxazole-5-carbonyl]amino]tetrahydrofuran-2-carboxylate]
Percent Injury 15 DAT [1, 6]: 39%
Percent injury 21 DAT [1, 6]: 50%
Percent Injury 15 DAT [1, 7]: 57%
Percent injury 21 DAT [1, 7]: 77%
Percent Injury 15 DAT [1, 8]: 42%
Percent injury 21 DAT [1, 8]: 47%
Percent Injury 15 DAT [1, 9]: 69%
Percent injury 21 DAT [1, 9]: 80%
Tolerance to icafolin ([1]; in vivo): did not show any noticeable tolerance
Tolerance to icafolin ([2]; CYP21, overall): good tolerance (an injury rating of less than 20% indicates good tolerance)
Percent Injury 14 DAT [2, 10]: 2.5%
Percent injury 21 DAT [2, 10]: 5.0%
Percent Injury 14 DAT [2, 11]: 50%
Percent injury 21 DAT [2, 11]: 37.5%
Percent Injury 14 DAT [2, 12]: 7.5%
Percent injury 21 DAT [2, 12]: 5.0%
Percent Injury 14 DAT [2, 13]: 72.5%
Percent injury 21 DAT [2, 13]: 62.5%
injury ([2]; CYP21 events, 5 g ai/ha): less than 10%
injury ([2]; one CYP21 event, 25 g ai/ha): about 50%
injury ([2]; the other CYP21 event, 25 g ai/ha): about 72%
Percent Plant Injury (21 DAT) ([3]; 5 g ai/ha icafolin): 11.4%
injury ratings ([3]; 5 g ai/ha, 21 DAT): below 15%
Tolerance to icafolin ([3]; 25 g ai/ha): Incomplete tolerance
Percent Plant Injury (21 DAT) ([3]; 25 g ai/ha icafolin): 41.1%
Percent Plant Injury (21 DAT) ([4]; 5 g ai/ha icafolin): 8.7%
injury ratings ([4]; 5 g ai/ha, 21 DAT): below 15%
Tolerance to icafolin ([4]; 25 g ai/ha): Incomplete tolerance
Percent Plant Injury (21 DAT) ([4]; 25 g ai/ha icafolin): 31.9%
Percent Plant Injury (21 DAT) ([5]; 5 g ai/ha icafolin): 18.9%
Percent Plant Injury (21 DAT) ([5]; 25 g ai/ha icafolin): 62.8%
